Values of other authors as cited in patent US7691599B2, “Mammalian genes involved in viral infection and tumor suppression” (Zirus, Inc., priority 2002, dated 2010).
Like-named read-outs stand apart in the source and are kept apart here.

How the values were obtained:
[1] = for plasma concentration at 3 h: 3 h after single oral dose of 300 mg V11294A; for AUC(0, infinity) / t½ / Cmax: plasma; for AUC(0, infinity) / t½: single oral dose of 300 mg V11294A; for Cmax: single oral fasting dose of 300 mg V11294A, mean +/− s.d.
[2] = system: tumour necrosis factor (TNF) release in whole blood
[3] = system: mononuclear cell proliferation; conditions: whole blood, 3 h (P<<0.05)
[4] = molecular target: T1, I747T mutant NR3C1 (glucocorticoid receptor) (Homo sapiens, UniProt P04150, I747T)
T1 sequence (P04150 1-777 I747T): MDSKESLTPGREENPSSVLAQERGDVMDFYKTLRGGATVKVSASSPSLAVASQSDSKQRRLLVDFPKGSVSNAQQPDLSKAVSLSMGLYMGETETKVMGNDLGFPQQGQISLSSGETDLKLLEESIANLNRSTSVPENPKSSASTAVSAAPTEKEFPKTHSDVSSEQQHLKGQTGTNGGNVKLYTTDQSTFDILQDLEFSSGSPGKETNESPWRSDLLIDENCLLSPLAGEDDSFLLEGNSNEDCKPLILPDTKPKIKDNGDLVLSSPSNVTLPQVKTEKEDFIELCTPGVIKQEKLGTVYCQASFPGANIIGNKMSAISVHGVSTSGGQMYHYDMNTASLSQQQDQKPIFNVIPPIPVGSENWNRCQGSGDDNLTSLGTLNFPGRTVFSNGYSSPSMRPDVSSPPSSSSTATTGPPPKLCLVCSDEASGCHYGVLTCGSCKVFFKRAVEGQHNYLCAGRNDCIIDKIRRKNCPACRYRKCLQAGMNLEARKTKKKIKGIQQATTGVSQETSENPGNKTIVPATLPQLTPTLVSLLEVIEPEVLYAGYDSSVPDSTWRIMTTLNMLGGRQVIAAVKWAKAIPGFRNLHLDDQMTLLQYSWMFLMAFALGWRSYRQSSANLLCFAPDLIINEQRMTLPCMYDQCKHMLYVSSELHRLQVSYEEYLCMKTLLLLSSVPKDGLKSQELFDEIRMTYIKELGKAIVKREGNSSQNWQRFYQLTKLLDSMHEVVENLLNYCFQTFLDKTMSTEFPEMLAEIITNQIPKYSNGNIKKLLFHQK

monoamine oxidase type A = molecular target: T2, monoamine oxidase type A (Mus musculus, UniProt Q64133); conditions: transgenic mice with reduced glucocorticoid receptor function
T2 construct: from tissue; host or cells: whole animal: transgenic mice expressing antisense RNA against glucocorticoid receptor mRNA
T2 sequence (Q64133 1-526): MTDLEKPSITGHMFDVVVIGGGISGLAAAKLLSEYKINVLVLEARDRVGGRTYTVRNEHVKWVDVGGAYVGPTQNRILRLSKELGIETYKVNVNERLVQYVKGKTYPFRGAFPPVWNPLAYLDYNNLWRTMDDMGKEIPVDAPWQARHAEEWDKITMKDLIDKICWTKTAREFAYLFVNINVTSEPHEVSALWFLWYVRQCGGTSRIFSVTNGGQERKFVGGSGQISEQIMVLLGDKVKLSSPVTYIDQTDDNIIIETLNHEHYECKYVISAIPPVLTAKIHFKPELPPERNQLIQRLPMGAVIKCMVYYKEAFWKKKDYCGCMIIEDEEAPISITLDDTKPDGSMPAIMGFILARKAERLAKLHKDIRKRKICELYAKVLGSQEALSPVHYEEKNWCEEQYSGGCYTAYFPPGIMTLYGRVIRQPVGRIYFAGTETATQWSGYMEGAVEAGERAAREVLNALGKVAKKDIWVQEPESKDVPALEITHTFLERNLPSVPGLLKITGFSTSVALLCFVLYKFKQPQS

ADAM 10 = molecular target: T3, ADAM 10 (Bos taurus, UniProt Q10741); conditions: ADAM 10 purified from bovine spleen membranes
T3 construct: purified a protease with characteristics of TNFalpha convertase from bovine spleen membranes; from tissue; host or cells: bovine spleen membranes
T3 sequence (Q10741 214-748): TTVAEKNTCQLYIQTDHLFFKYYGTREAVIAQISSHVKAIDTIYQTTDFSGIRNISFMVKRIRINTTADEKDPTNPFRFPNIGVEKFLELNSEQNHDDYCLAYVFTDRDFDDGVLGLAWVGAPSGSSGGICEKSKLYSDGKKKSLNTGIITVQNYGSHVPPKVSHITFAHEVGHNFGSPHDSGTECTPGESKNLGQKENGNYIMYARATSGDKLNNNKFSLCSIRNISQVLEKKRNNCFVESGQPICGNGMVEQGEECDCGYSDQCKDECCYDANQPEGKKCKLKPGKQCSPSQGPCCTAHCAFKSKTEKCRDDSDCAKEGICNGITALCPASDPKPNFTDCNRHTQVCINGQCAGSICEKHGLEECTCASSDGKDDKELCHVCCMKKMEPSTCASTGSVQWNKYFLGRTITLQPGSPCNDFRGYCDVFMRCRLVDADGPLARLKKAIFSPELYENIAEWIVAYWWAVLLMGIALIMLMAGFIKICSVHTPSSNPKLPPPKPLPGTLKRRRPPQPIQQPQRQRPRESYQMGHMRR

Row | plasma concentration at 3 h [1] [ng/mL] | AUC(0, infinity) [1] [ng·h/mL] | t½ [1] [h] | Cmax ([1]; healthy volunteers) [ng/mL] | SMILES | transactivation by I747T mutant NR3C1 [4] | also measured
1 | 1300 ± 330 | 18100 ± 6100 | 9.7 ± 3.9 | 1398 ± 298 | CCNc1ncn(Cc2ccc(OC)c(OC3CCCC3)c2)c2nc(C(C)C)nc1-2.Cl [V11294A, 3-(3-cyclopentyloxy-4-methoxybenzyl)-6-ethylamino-8-isopropyl-3H purine hydrochloride] |  | adverse reactions ([1]; single oral administration, 300 mg, healthy volunteers): No adverse reactions were noted; LPS-induced TNF release ([2]; 3 h post ingestion (P<<0.001)): significant reduction; LPS-induced TNF release ([2]; 24 h post ingestion (P<<0.05)): significant reduction; amount of TNF released in response to LPS ([2]; LPS 4 ng ml−1, whole blood, 3 h postdose (before 778+/−87, P=0.02)): 566 ± 72 pmol/mL; PHA-induced proliferation [3]: inhibited
2 |  |  |  |  | C[C@]12C[C@H](O)[C@H]3[C@@H](CCC4=CC(=O)CC[C@@]43C)[C@@H]1CC[C@@H]2C(=O)CO [corticosterone] | completely inactive | 
3 |  |  |  |  | O=C(NCCN1CCOCC1)c1ccc(Cl)cc1 [moclobemide] |  | behavioral deficits (monoamine oxidase type A): reversed the behavioral deficits
4 |  |  |  |  | C[C@]12CCC(=O)C=C1CC[C@@H]1[C@@H]2[C@@H](O)C[C@@]2(C)[C@H]1CC[C@]2(O)C(=O)CO [cortisol] | completely inactive | 
5 | 860 ± 300 | 18600 ± 8500 | 9.5 ± 1.7 | 1000 ± 400 | COc1ccc(Cn2cnc(N)c3nc(C(C)C)nc2-3)cc1OC1CCCC1 [V10332, 3-(3-cyclopentyloxy-4-methoxy-benzyl)-8-isopropyl-3H-purin-6-ylamine] |  | 
6 |  |  |  |  | CC(C)C[C@H](NP(=O)(O)O[C@@H]1O[C@@H](C)[C@H](O)[C@@H](O)[C@H]1O)C(=O)N[C@@H](Cc1c[nH]c2ccccc12)C(=O)O [phosphoramidon] |  | sensitivity of the enzyme to inhibitor (ADAM 10): insensitive
